Data as given in ChEMBL document CHEMBL3507680, “University of Dundee, Gates Library screen for HepG2 cell viability”.

Assay: Human HepG2 cell viability assay in 384 well format
Format: toxicity, cell-based
Design: dose 125 nL, time 70.5 hour; cytotoxicity at 70.5 h: concentration not given beside the values
Conditions: HepG2 cells, read-out: Inhibition

SMILES	cytotoxicity at 70.5 h
Cn1cc(NC(=O)NCc2ccoc2)ccc1=O	-3.69%
COc1ccc(N2CCN(C(=O)C(C)n3cc(Br)cn3)CC2)cc1 (configuration not stated)	-1.02%
CCCn1ccnc1CNC(=O)C1COc2cc(OC)ccc2C1 (configuration not stated)	-5.58%
Cc1ccc(OCCCC(=O)NC(C)c2nnc3n2CCC3)cc1 (configuration not stated)	-0.817%
CCS(=O)(=O)N1CCc2onc(CNc3ncccn3)c2C1	-8.6%
c1cnnc(N2CCCC2CNCc2ccsc2)c1 (configuration not stated)	-10.1%
COc1ccccc1OCC(=O)n1nc(C)c(C)c1C	6.31%
CC(C)CNC(=O)c1cc(C2CC2)nc2c1c(C1CCCN1)nn2C (configuration not stated)	13.8%
CC(C)(C)c1cnc(CN2C(=O)CC3(CCSC3)C2=O)o1 (configuration not stated)	-4.79%
CN1CCCCc2c1nc1c(c2N)CCC1.O=C(O)c1cc([N+](=O)[O-])ccc1Cl	-11.7%
CC(NC(=O)CCN1CCOC1=O)(c1ccccc1)c1ccccc1	0.0243%
CCCNC(=O)c1cccc2ncccc12	-4.07%
CCCc1nnc(NC2CCN(C3CCSCC3)CC2)o1	-13.9%
COc1ncc(NS(=O)(=O)c2ccc(F)cc2F)cn1	-3.22%
CC(C)c1cnc(N2C[C@H](CO)C[C@H](CN3CCOCC3)C2)nc1	-4.2%
CC(C)c1nc(CN2CCCN(Cc3nnc(C4CC4)o3)CC2)no1	1.11%
Cc1ccc(C(C)N(C)CCS(=O)(=O)CCC(N)=O)cc1 (configuration not stated)	-6.4%
CC1(C)CCC(C(=O)O)c2ccccc21 (configuration not stated)	-8.46%
COCCNC(=O)CCNc1ccc(Cl)cn1	-6.53%
CCC(=O)N1CCC2(COCc3cnc(NCc4ccco4)nc32)C1 (configuration not stated)	0.523%
CC(C)N1CCC(C(=O)NC[C@H]2CCc3ccccc3O2)CC1	-17.4%
CS(=O)(=O)c1ccc(NC(=O)N2CCc3sccc3C2)cn1	46.4%
CC(C)NC(=O)NCCCOC1CCOCC1	-4.28%
Cc1ccsc1CN1CCC(c2nnc(Cn3cccn3)n2C)CC1	-2.95%

SMILES	cytotoxicity at 70.5 h
CC(C)c1nnc(CNC2CCCN(Cc3noc(C4CC4)n3)C2)o1 (configuration not stated)	-5.67%
Cc1nn(C)cc1C(=O)N1CCCn2nc(CN3CC[C@H](F)C3)cc2C1	6.52%
Cc1cc(=O)c(C(=O)N(C)Cc2ccc(Cl)c(F)c2)c[nH]1	-1.6%
Cc1ccc(N2CCN(CC3CC3)C3(CCN(C(C)C)CC3)C2=O)cn1	-5.52%
O=C(c1ccco1)N(CC(F)(F)F)C1CCCOC1 (configuration not stated)	-2.62%
CS(=O)(=O)Nc1cccc(CNC(=O)CCc2ccsc2)c1	-1.95%
CCOC(=O)CC1CCCCN1C(=O)c1cc(=O)[nH]c(=O)[nH]1 (configuration not stated)	11.7%
Cn1cc(CN2CC[C@H](O)[C@@H]2Cc2ccncc2)cn1	26%
CCCc1ncc(C(=O)N2CCOc3ncccc32)s1	-2.81%
CC(C)CC(CCO)CNC(=O)N1CCC1(C)C (configuration not stated)	-1.15%
O=C(CCS(=O)(=O)C1CCCC1)N1CCC(O)(C(F)(F)F)C1 (configuration not stated)	19.5%
Cc1cc(NC2CCN(c3ccc(F)cc3)CC2)n2nc(C)cc2n1	-1.64%
CC(Nc1cccc(CN2CCOC2=O)c1)C(=O)NC(=O)NC(C)(C)C (configuration not stated)	-16.7%
CC(CNCc1ccc(F)cc1)Oc1ccccn1 (configuration not stated)	-17.7%
C=C(C)CN1CCC(NC(=O)NCCc2ccccc2OC)CC1	-7.86%
O=c1cc(CN2CCC(CCc3ccc(O)cc3)CC2)[nH]c(=O)[nH]1	-6.15%
O=C1CCC2(CCCN(C(=O)c3ccoc3)C2)CN1CCc1c[nH]cn1 (configuration not stated)	-4.81%
Cc1ccc2c(n1)N(C)CCN(C(=O)C1CC1)C2	-8.52%
CCCN(CCOC)c1nc(C)nc2sccc12	13.4%
CC(C)Oc1cccc(C(=O)Nc2nncs2)c1	-11.6%
Cc1ccc(CN2C[C@@H](OCc3csc(C)n3)[C@H]3COC[C@H]32)s1	-10.6%
Cc1nc(-c2cccs2)ccc1C(=O)N1CCN(CCO)CC1	0.744%
Cc1ncsc1CCC(=O)N1CCn2cccc2C1c1cccnc1 (configuration not stated)	-3.49%
COc1ccccc1-c1cc(NC(=O)CCS(=O)(=O)C2CCCC2)[nH]n1	25.9%

SMILES	cytotoxicity at 70.5 h
CC(=O)c1ccc(OCC(=O)NS(=O)(=O)c2cccnc2)cc1	17.6%
Cc1cccc(N2CCc3ncc(CNc4ccccn4)n3CC2)n1	-3.22%
Cn1ccnc1CN1CCOC(Cn2cccn2)C1 (configuration not stated)	-1.69%
Cc1ccc(-c2noc(CN3CCc4cncnc4C3)n2)cc1	11.6%
COC(=O)c1c(Cl)c(C2CC2)nc2onc(C)c12	2.98%
Cc1cc(C)n(CC(C)Nc2nc(-c3ccncc3)nc3c2CNC3)n1 (configuration not stated)	17.3%
CCC1CN(CC(=O)N2CCN(C(C)=O)CC2)CCN1CCOC (configuration not stated)	-7.53%
O=C(c1cccnc1)N1CCC2(CC1)CCN(Cc1ccccn1)C2=O	-9.02%
COc1ccc(C(=O)NCC2CCCN(C3CCOCC3)C2)c(O)c1 (configuration not stated)	23.3%
Cc1csc2c(=O)n(CCN3CCC(c4ccccc4)CC3)cnc12	-3.26%
CC(=O)N1CCCC(c2ccc(CO)c(-c3c(C)noc3C)n2)C1 (configuration not stated)	27.2%
Cc1ccc(CN2Cc3c(C(=O)N4CCCC4)nn(C)c3C2)s1	22.4%
CN(C)CCn1c([C@@H]2CCCO2)cc2cccnc21	2.42%
Cc1nc(CN2CCC(c3nc4ccccc4n3C)CC2)co1	-24.4%
Cc1nnc([C@@]23CCO[C@@H]2CCN(S(=O)(=O)c2ccccc2)C3)o1	-7.57%
COc1ccccc1CNC(=O)C(C)N1CC(n2cc(C)cn2)C1 (configuration not stated)	-10.8%
CCSCCC(C)N(C)C(=O)c1ccc(C)o1 (configuration not stated)	-1.62%
Cc1cc(Br)cnc1N(C)CC1CCOC1 (configuration not stated)	-3.38%
CCOCCNC1(c2ccc(Cl)cc2)CCOCC1	9.63%
COCc1cccc(NC(=O)NCCCN(C)S(C)(=O)=O)c1	-10.1%
Cn1c(NC(=O)CNC(=O)C2CCCC2)nc2cc(Cl)ccc21	-9.81%
CC(C)N1CCCC1c1csc(N)n1 (configuration not stated)	-1.44%
C1CC(CN2CCc3c(nnn3CC3CC3)C2COCC2CC2)C1 (configuration not stated)	-8.97%
Cc1c(Cl)cccc1S(=O)(=O)N1CCC(S(=O)(=O)c2nncn2C)CC1	1.44%

SMILES	cytotoxicity at 70.5 h
c1ccc(OCc2n[nH]c3c2CN(CC2CC2)C3)nc1	-2.5%
COc1ncc(C2(O)CCN(Cc3ccc(F)c(F)c3)CC2)c(OC)n1	-3.5%
COc1ccc(CC(=O)N2CC[C@H](CO)[C@H](O)C2)c(OC)c1	-7.77%
O=C(Nc1ccc2scnc2c1)N1CCN([C@H]2CCCC[C@@H]2O)CC1	-13.6%
O=C1NC(c2ccccc2)=N[C@@]12CC[C@@H]1CN(CC3CC3)C[C@@H]12	-10.6%
COCC1CN(S(C)(=O)=O)Cc2ncn(CC3CC3)c21 (configuration not stated)	-6.83%
COc1cccc2ccn(CC(=O)NCCC(C)C)c12	11%
Nc1nc(CN2CCOC(Cn3cncn3)C2)nc2ccccc12 (configuration not stated)	-3.11%
CCCC(=O)N(CCN1CCOCC1)c1nc2c(OC)ccc(C)c2s1	-7.03%
COc1cccc(C(=O)N2C[C@H]3CC[C@@H]2CN(Cc2cscn2)C3)c1	-23.3%
O=C(c1ccco1)N1CCOCC2(C1)CN(c1ccccn1)C(=O)CO2 (configuration not stated)	-4.96%
Cc1nn(C)c(C)c1S(=O)(=O)N(CC(N)=O)CC(C)C	-8.24%
CSc1[nH]nc(NC(=O)c2ccccc2)c1C#N	-10%
Cc1nc(CN2CCc3c(nc(C4CC4)n3C)C2)nc2ccccc12	-5.35%
OC1CCN(Cc2cc3c(cc2Br)OCCO3)CC1	0.754%
CN(C)S(=O)(=O)c1ccc(=O)n(CC2CCCCO2)c1 (configuration not stated)	-12.9%
CC(=O)NC1CCN(c2cnc(C3CCNCC3)cn2)CC1	-3.96%
CN1CC(Nc2ccc(Br)cc2C#N)CCC1=O (configuration not stated)	-0.708%
Cc1nc(C2CCN(C(C)C)CC2)sc1Br	-2.12%
CS(=O)(=O)c1cccc(C(=O)NCC2Cc3ccccc3O2)c1 (configuration not stated)	-5.79%
Cc1ncsc1CN(C)C(=O)C(CC(C)C)N1CCCCC1=O (configuration not stated)	-2.15%
CC(C)OCCN1CCC(Nc2ccc(C#N)cc2F)CC1	-8.23%
COc1ccc(-c2cc(N)ccn2)c(OC)c1OC	-9.71%
Cc1ccc(CN2CCC3(CCC(C(=O)N(C)C)O3)CC2)o1 (configuration not stated)	-23.2%

SMILES	cytotoxicity at 70.5 h
CSc1ccc(Cl)c(C(=O)N2CCCC(CNS(C)(=O)=O)C2)c1 (configuration not stated)	17.2%
Cc1cccc(C)c1OCCNC(=O)CNC(=O)C1CCCC1	23.5%
c1cnc(N2CCCC3(CCN(c4ncccn4)C3)C2)nc1 (configuration not stated)	26.5%
CN(C)c1nc(N)nc(CN2CCC(c3nc4ccccc4o3)CC2)n1	-7.79%
O=C(CCS(=O)(=O)C1CCCC1)NCCc1cccnc1	-6.71%
CN(Cc1nnc2n1CCC2)C(=O)Cc1ccc2c(c1)CCC2	-6.67%
Cc1nc(C)n(CC2CN(CCOc3ccccc3C#N)CCO2)n1 (configuration not stated)	-8.64%
NC(=O)CC1CCCN(c2cncc(SCc3ccccc3)n2)C1 (configuration not stated)	-1.35%
O=C(c1cccnc1)N1CCCC1c1cc[nH]n1 (configuration not stated)	23.9%
O=C(c1ccc(-n2cccn2)nc1)N1CCC(c2ccc(O)cc2)CC1	-5.83%
O=C(c1cccn1Cc1cccs1)N1CCN(C2CC2)CC1	-10.4%
CCOc1ccc(NC(=O)C2OC(c3cccs3)=NN2C(C)=O)cc1 (configuration not stated)	11.5%
Cc1nc(-c2cnn(C)c2)sc1C(=O)NCc1ccc(C)n1C	-2.82%
COc1cccc(CNC(=O)C(C)N2CC(n3nc(C)cc3C)C2)c1 (configuration not stated)	-12.9%
Cc1cnc(C(=O)N2CCC3(CC2)CN(c2ccccn2)CCO3)cn1	-6.44%
Cc1nn2c(NCC(N)=O)cc(-c3ccccc3)nc2c1C	15.2%
CC1CCC(O)(CSc2nnnn2C)CC1 (configuration not stated)	-3.28%
Cc1[nH]ncc1C(=O)NCC1CCC2(CC1)OCCO2	-5.66%
Clc1snnc1CN(Cc1cccs1)C1CC1	-5.36%
CCCS(=O)(=O)N1C[C@@H]2COC[C@]2(CN2CCOCC2)C1	-10.5%
Cc1nccn1-c1ccc(C(C)NCCC(C)C)cc1 (configuration not stated)	-1.85%
